{"source": "paper PMC11855355", "about": "“In-Situ Purification of Non-Ribosomal Peptide Synthetases Assembly Line for Structural and Biochemical Studies” (International Journal of Molecular Sciences, 2025)", "target": "T1, PvdL (Pseudomonas putida, UniProt Q88F56)", "T1 construct": "monomer", "T1 sequence (Q88F56 1-4317)": "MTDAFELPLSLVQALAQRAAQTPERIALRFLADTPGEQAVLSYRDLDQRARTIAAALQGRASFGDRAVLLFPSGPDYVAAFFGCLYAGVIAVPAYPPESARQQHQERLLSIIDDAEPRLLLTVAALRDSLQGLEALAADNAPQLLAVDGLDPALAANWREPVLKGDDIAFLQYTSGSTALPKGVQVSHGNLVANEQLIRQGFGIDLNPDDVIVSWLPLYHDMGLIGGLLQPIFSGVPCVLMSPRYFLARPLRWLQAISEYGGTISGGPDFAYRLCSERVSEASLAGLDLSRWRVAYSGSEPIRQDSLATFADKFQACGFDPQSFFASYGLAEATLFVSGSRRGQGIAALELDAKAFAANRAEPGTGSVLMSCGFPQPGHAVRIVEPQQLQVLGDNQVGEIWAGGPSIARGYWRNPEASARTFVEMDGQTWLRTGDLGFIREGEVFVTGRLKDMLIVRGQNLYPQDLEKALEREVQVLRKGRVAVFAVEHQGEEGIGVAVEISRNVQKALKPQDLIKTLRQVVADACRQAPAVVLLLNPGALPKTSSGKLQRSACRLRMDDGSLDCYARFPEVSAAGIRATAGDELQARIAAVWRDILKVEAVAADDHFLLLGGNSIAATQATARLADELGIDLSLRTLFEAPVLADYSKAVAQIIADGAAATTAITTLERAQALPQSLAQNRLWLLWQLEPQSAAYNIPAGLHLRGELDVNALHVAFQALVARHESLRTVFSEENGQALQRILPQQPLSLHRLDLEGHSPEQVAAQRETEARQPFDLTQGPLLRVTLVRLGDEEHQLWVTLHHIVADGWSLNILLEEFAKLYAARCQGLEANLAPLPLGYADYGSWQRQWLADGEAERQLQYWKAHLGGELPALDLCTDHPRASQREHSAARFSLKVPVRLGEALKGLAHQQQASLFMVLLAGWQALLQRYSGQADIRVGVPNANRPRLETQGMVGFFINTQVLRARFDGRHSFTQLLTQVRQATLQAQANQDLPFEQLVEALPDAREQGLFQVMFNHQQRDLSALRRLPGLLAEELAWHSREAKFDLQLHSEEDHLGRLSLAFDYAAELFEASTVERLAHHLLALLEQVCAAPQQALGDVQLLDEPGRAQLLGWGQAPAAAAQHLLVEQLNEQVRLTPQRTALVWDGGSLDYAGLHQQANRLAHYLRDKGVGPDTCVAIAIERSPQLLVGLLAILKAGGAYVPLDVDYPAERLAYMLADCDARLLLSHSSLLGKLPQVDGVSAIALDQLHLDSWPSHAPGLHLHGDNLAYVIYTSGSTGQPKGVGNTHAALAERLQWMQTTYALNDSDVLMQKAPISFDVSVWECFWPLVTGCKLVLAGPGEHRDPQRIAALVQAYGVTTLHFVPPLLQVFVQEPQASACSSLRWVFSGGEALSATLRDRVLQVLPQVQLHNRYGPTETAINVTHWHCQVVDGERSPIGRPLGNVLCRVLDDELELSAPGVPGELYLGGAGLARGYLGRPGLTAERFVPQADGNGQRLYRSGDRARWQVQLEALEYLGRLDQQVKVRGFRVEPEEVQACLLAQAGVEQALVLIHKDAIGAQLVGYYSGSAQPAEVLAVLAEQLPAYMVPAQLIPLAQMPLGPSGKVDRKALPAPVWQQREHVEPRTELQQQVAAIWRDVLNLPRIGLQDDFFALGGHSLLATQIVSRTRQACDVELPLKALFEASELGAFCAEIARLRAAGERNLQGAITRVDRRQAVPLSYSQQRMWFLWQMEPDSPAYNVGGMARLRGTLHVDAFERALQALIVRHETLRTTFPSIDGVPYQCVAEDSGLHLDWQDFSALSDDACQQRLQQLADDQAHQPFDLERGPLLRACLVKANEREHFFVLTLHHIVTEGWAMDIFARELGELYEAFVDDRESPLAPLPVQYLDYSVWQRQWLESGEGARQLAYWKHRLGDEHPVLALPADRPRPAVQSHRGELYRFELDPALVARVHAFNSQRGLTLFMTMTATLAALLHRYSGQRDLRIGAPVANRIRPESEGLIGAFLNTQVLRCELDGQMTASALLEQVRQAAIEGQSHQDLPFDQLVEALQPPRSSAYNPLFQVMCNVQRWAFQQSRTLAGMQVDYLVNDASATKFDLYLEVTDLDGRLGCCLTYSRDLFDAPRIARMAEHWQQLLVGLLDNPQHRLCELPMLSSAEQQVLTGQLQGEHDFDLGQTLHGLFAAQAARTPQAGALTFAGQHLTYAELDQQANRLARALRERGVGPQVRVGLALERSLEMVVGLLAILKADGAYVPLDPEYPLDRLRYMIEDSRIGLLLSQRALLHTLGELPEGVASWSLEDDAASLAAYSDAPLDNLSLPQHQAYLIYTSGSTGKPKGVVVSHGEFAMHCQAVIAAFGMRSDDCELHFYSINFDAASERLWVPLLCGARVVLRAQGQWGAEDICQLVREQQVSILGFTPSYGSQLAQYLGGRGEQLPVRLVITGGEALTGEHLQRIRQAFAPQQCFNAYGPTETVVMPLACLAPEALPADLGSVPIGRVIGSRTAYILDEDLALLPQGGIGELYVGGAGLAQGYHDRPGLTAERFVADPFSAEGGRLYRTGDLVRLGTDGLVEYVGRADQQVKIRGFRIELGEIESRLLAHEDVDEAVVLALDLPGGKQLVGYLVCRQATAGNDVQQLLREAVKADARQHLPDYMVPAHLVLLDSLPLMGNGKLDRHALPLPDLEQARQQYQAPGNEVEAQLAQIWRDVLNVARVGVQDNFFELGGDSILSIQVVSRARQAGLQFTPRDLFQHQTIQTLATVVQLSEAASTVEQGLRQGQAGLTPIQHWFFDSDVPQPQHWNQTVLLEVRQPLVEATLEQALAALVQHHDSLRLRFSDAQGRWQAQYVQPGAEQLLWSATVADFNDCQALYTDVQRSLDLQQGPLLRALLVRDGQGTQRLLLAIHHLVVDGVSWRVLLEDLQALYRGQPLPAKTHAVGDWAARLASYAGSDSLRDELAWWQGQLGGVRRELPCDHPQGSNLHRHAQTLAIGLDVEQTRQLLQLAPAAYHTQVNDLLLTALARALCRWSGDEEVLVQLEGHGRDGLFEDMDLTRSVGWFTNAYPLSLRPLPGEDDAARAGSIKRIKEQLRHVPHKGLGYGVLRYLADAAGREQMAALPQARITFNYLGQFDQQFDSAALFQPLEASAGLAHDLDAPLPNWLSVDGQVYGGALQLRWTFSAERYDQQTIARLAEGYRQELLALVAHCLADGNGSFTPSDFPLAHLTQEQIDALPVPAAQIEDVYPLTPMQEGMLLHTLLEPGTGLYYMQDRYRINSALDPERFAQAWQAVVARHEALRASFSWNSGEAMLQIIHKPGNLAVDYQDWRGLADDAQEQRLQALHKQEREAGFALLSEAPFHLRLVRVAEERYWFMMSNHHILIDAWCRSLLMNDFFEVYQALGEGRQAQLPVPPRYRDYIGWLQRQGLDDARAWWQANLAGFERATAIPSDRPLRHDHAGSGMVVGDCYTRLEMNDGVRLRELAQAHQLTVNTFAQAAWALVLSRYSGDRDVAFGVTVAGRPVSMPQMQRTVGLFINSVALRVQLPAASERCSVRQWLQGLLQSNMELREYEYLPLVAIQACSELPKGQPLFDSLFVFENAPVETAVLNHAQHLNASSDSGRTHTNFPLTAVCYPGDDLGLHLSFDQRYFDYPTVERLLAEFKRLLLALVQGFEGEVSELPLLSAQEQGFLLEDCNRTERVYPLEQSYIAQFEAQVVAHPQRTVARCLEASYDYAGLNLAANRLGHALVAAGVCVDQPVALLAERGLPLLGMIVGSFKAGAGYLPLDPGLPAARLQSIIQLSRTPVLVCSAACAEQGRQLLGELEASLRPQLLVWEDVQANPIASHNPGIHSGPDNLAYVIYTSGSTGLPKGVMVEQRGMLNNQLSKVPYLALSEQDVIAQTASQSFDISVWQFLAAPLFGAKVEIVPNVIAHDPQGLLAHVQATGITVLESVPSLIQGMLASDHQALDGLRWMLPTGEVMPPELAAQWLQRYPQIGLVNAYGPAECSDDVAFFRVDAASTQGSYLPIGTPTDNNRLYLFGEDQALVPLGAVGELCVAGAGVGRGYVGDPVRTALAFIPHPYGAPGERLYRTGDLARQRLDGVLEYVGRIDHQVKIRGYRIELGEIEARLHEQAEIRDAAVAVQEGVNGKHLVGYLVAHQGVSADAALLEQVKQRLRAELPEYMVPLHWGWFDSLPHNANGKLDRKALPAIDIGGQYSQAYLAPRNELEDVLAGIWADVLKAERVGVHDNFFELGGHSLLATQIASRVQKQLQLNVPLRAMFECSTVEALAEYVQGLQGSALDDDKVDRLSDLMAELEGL", "assay": "LC/HRMS of product N-myristoyl-L-glutamic acid after base hydrolysis", "format": "biochemical", "conditions": "1 uM PvdL, 200 uM myristic acid, 1 mM L-Glu, 5 mM ATP, 10 mM MgCl2, pH 7.6, 25 °C; first two modules; product covalent on PvdL", "data": [{"smiles": "N[C@@H](CCC(=O)O)C(=O)O", "note": "[L-Glu]", "values": [{"measurement": "LC/HRMS of product N-myristoyl-L-glutamic acid after base hydrolysis", "value": "ATP-energy-dependent activation and condensation of myristic acid and glutamic acid"}]}]}
